{"source": "patent US20210220184A1", "about": "“ABSORBENT TAMPON FOR TREATMENT OF MENSTRUAL SYMPTOMS” (Anne's Day Ltd, priority 2018, published 2021)", "system": "women with a history of mild or sever dysmenorrhea", "assay": "Clinical study of tampon with CBD (randomized, controlled, crossover, two menstrual cycles; questionnaire and diary data)", "assay_type": "in vivo", "conditions": "tests performed by the inventors; cannabidiol provided on the tampon", "experimental": "The following study was performed to assess the safety and efficacy of a tampon covered with CBD oil.\nPatients and Samples. A total of 130 women aged between 18 and 42 with a history of mild or sever dysmenorrhea were recruited for this study.\nStudy design. […] Patients were divided into two groups. One group used a hemp, CBD-infused tampon. The tampon contained […] of CBD oil. The tampon consisted of highly absorbent organic hemp fibers and organic hemp overwrap, organic cotton stitching thread and organic cotton removal cord, and a layer of CBD oil sprayed on top of the hemp overwrap. A second group used a standard off-the-shelf tampon product as a control. The off-the-shelf tampon consisted of blended rayon and viscose fibers with a non-woven rayon overwrap, cotton stitching thread and removal cord.\nIn a first visit, a patient underwent a gynecological exam and had blood drawn to test for STIs. If the patient fit inclusion criteria, in a second visit, the patient was divided into an experimental group or control group. A control test for levels of CBD in the bloodstream was performed on all participants and the results recorded. All participants were given diaries and instructed to write a detailed account of the comfort of tampon insertion and removal, comfort of wear, and levels of pain experienced. […]", "data": [{"smiles": "C=C(C)[C@@H]1CCC(C)=C[C@H]1c1c(O)cc(CCCCC)cc1O", "note": "[cannabidiol]", "values": [{"measurement": "vaginal delivery from the tampon to treat symptoms associated with menstruation", "value": "can be delivered vaginally"}]}]}
